Measurements as given in patent US9567342B2, “Certain protein kinase inhibitors” (SHANGHAI FOCHON PHARMACEUTICAL CO., LTD., priority 2012, dated 2017).

System: SU-DHL-1 cells
Assay: Inhibition activity of cell proliferation (CCK-8 assay)
Assay type: cell-based
Conditions: Homo sapiens, 72 h exposure
Description: SU-DHL-1 cells were seeded in 96-well tissue culture plates. On the next day, cells were exposed to various concentrations of compounds and further cultured for 72 h. Cell proliferation was then determined using Cell Counting Kit-8 [(CCK-8), Dojindo]assay. Briefly, add 10 μL of the CCK-8 solution to each well of the plate. Incubate the plate for 1-4 hours in the incubator. Measure the absorbance at 450 nm using a multi-well spectrophotometer (SpectraMAX 190, Molecular Devices). The inhibition rate (%) was calculated using the following equation: [1−(A450 Compound/A450 Control)]×100%. IC50 values were calculated according to inhibition curve by four-parameter fit.

| IC50 | SMILES |
| --- | --- |
| 219 nM | Cc1cc(Nc2ncc(Cl)c(Nc3ccccc3S(=O)(=O)C(C)C)n2)c2c(c1C(=O)N1CCOCC1)C[C@H](C)O2 [Example 48, (S)-(7-((5-chloro-4-((2-(isopropylsulfonyl)phenyl)amino)pyrimidin-2-yl)amino)-2,5-dimethyl-2,3-dihydrobenzofuran-4-yl)(morpholino)methanone] |
| 26.3 nM | CO[C@H](C)C(=O)N1CCC(c2c(C)cc(Nc3ncc(Cl)c(Nc4ccccc4S(=O)(=O)C(C)C)n3)c3c2C[C@@H](C)O3)CC1 [Example 56, (R)-1-(4-((R)-7-((5-chloro-4-((2-(isopropylsulfonyl)phenyl)amino)pyrimidin-2-yl)amino)-2,5-dimethyl-2,3-dihydrobenzofuran-4-yl)piperidin-1-yl)-2-methoxypropan-1-one] |
| 54.6 nM | Cc1cc(Nc2ncc(Cl)c(Nc3ccccc3S(=O)(=O)C(C)C)n2)c2c(c1C1CCN(C(=O)CN)CC1)C[C@H](C)O2 [Example 42, (S)-2-amino-1-(4-(7-((5-chloro-4-((2-(isopropylsulfonyl)phenyl)amino)pyrimidin-2-yl)amino)-2,5-dimethyl-2,3-dihydrobenzofuran-4-yl)piperidin-1-yl)ethanone] |
| 32.8 nM | CO[C@@H](C)C(=O)N1CCC(c2c(C)cc(Nc3ncc(Cl)c(Nc4ccccc4S(=O)(=O)C(C)C)n3)c3c2C[C@@H](C)O3)CC1 [Example 57, (S)-1-(4-((R)-7-((5-chloro-4-((2-(isopropylsulfonyl)phenyl)amino)pyrimidin-2-yl)amino)-2,5-dimethyl-2,3-dihydrobenzofuran-4-yl)piperidin-1-yl)-2-methoxypropan-1-one] |

Further lines, the compound ahead of its results:

| SMILES | IC50 |
| --- | --- |
| Cc1cc(Nc2ncc(Cl)c(Nc3ccccc3S(=O)(=O)C(C)C)n2)c2c(c1C1CCN(C(=O)[C@H](C)O)CC1)C[C@@H](C)O2 [Example 38, (S)-1-(4-((R)-7-((5-chloro-4-((2-(isopropylsulfonyl)phenyl)amino)pyrimidin-2-yl)amino)-2,5-dimethyl-2,3-dihydrobenzofuran-4-yl)piperidin-1-yl)-2-hydroxypropan-1-one] | 13.6 nM |
| Cc1cc(Nc2ncc(Cl)c(Nc3ccccc3S(=O)(=O)C(C)C)n2)c2c(c1C1CCN(CCO)CC1)C[C@@H](C)O2 [Example 33, (R)-2-(4-(7-((5-chloro-4-((2-(isopropylsulfonyl)phenyl)amino)pyrimidin-2-yl)amino)-2,5-dimethyl-2,3-dihydrobenzofuran-4-yl)piperidin-1-yl)ethanol] | 11.8 nM |
| Cc1cc(Nc2nc(Nc3ccccc3S(=O)(=O)C(C)C)c3c(C)n[nH]c3n2)c2c(c1C1CCNCC1)CC(CO)O2 (stereo not shown) [Example 7, (7-(4-(2-(isopropylsulfonyl)phenylamino)-3-methyl-1H-pyrazolo[3,4-d]pyrimidin-6-ylamino)-5-methyl-4-(piperidin-4-yl)-2,3-dihydrobenzofuran-2-yl)methanol] | 298 nM |
| Cc1cc(Nc2ncc(Cl)c(Nc3ccccc3S(=O)(=O)C(C)C)n2)c2c(c1C1CCN(CC(=O)O)CC1)C[C@H](C)O2 [Example 19, (S)-2-(4-(7-((5-chloro-4-((2-(isopropylsulfonyl)phenyl)amino)pyrimidin-2-yl)amino)-2,5-dimethyl-2,3-dihydrobenzofuran-4-yl)piperidin-1-yl)acetic acid] | 4.9 nM |
| Cc1cc(Nc2ncc(Cl)c(Nc3ccccc3S(=O)(=O)C(C)C)n2)c2c(c1C1CCN(S(C)(=O)=O)CC1)C[C@@H](C)O2 [Example 18] | 15.9 nM |
| Cc1cc(Nc2ncc(Cl)c(Nc3ccccc3S(=O)(=O)C(C)C)n2)c2c(c1C1CCN(CC(N)=O)CC1)C[C@H](C)O2 [Example 25, (S)-2-(4-(7-((5-chloro-4-((2-(isopropylsulfonyl)phenyl)amino)pyrimidin-2-yl)amino)-2,5-dimethyl-2,3-dihydrobenzofuran-4-yl)piperidin-1-yl)acetamide] | 36.3 nM |
